# Data as given in PubChem BioAssay (NCI).
# “And” between values parts separate entries of the source, which are not always exact repeats. Equal values may be shown once.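 Compound exposure: 48 hours, 5 concentrations, 96-well plates. GI50 = concentration required for 50% inhibition of growth. At the TGI there is no net growth.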
# How the values were obtained:
# Experiment in all cases: NCI tumour cell line growth inhibition, 48 h
# SNB-75 CNS = tested on: SNB-75 CNS
# HOP-62 NSCLC = tested on: HOP-62 NSCLC
# OVCAR-8 ovarian = tested on: OVCAR-8 ovarian
# NCI-H226 lung = tested on: NCI-H226 lung
# NCI/ADR-RES ovarian = tested on: NCI/ADR-RES ovarian
# UACC-62 melanoma = tested on: UACC-62 melanoma
# OVCAR-5 ovarian = tested on: OVCAR-5 ovarian
# HCT-116 colon = tested on: HCT-116 colon
# LOX IMVI melanoma = tested on: LOX IMVI melanoma
# RPMI-8226 leukemia = tested on: RPMI-8226 leukemia
SMILES,GI50 (SNB-75 CNS),TGI (SNB-75 CNS),GI50 (HOP-62 NSCLC),TGI (HOP-62 NSCLC),GI50 (OVCAR-8 ovarian),TGI (OVCAR-8 ovarian),GI50 (NCI-H226 lung),TGI (NCI-H226 lung),GI50 (NCI/ADR-RES ovarian),TGI (NCI/ADR-RES ovarian),GI50 (UACC-62 melanoma) [µM],TGI (UACC-62 melanoma) [µM],GI50 (OVCAR-5 ovarian),TGI (OVCAR-5 ovarian),GI50 (HCT-116 colon),TGI (HCT-116 colon),GI50 (LOX IMVI melanoma),TGI (LOX IMVI melanoma) [µM],GI50 (RPMI-8226 leukemia),TGI (RPMI-8226 leukemia)
O=C(Nc1cccc(Cl)c1)Nc1ncc(CCNc2ncnc3ccsc23)s1,1.62 µM and 1.02 µM,19.5 µM and > 10 µM,2.37 µM and 1.41 µM,15.3 µM and > 10 µM,1.68 µM and 1.22 µM,9.64 µM and 5.31 µM,1.86 µM and 2.06 µM,8.98 µM and > 10 µM,1.34 µM and 1.6 µM,11.8 µM and > 10 µM,1.1,11.7,9.88 µM and > 10 µM,25.5 µM and > 10 µM,1.6 µM and 2.35 µM,16.1 µM and > 10 µM,1.38 µM and 1.2 µM,> 43.9,2.98 µM and 1.32 µM,33.5 µM and 5.81 µM
CCN1C(=O)N(CC)C2C1NN=c1s/c(=C3\C(=O)N(C(C)C)c4ccccc43)c(=O)n12 (stereo not given),0.317 µM,20.9 µM,0.441 µM,42.7 µM,0.62 µM,> 53.4 µM,0.441 µM,23.2 µM,0.3 µM,3.14 µM,0.466,> 36.2,0.639 µM,> 100 µM,0.377 µM,> 100 µM,0.463 µM,> 100,0.429 µM,> 100 µM
NC(=O)[C@H]1CCN(c2ncnc(N)c2F)C[C@@H]1N1CCC[C@@H](Nc2cc(Cl)cc(C(F)(F)F)c2)C1=O,12.6 µM,39.1 µM,22 µM,> 100 µM,25.6 µM,> 100 µM,18.4 µM,70 µM,29.7 µM,> 100 µM,13.9,29.5,13.5 µM,59.3 µM,15.5 µM,43 µM,11.2 µM,27.1,16.8 µM,56.3 µM
CCCN(Cc1ccc(F)cc1)c1ccc(CO)c(Cl)c1,10.6 µM,22.7 µM,2.4 µM,17.1 µM,11.5 µM,25.8 µM,0.0365 µM,0.144 µM,9.52 µM,22.9 µM,0.167,0.907,0.168 µM,0.528 µM,0.138 µM,3.86 µM,9.49 µM,21.9,1.91 µM,14 µM
N#Cc1ncc(/N=C/c2ccc(N(CCCl)CCCl)cc2)s1,17.6 µM,> 100 µM,17.9 µM,> 100 µM,7.58 µM,> 100 µM,0.897 µM,7.71 µM,7.36 µM,> 100 µM,3.09,28.7,17.5 µM,> 100 µM,30.2 µM,> 100 µM,6.89 µM,> 100,53.7 µM,> 100 µM
c1ccc2[nH]c(-c3ccc(N4CCN(c5ccc(-c6nc7ccccc7[nH]6)cc5)CC4)cc3)nc2c1,> 100 µM,> 100 µM,11.4 µM,75.7 µM,> 100 µM,> 100 µM,24.2 µM,> 100 µM,> 100 µM,> 100 µM,83,> 100,52 µM,> 100 µM,5.11 µM,> 100 µM,> 100 µM,> 100,40 µM,> 100 µM
